Measurements reported in patent publication US20090197900A1, “METHODS OF TREATING HEART FAILURE AND RENAL DYSFUNCTION IN INDIVIDUALS WITH AN ADENOSINE A1 RECEPTOR ANTAGONIST” (priority 2007, published 2009).

Test system: subjects with acute CHF and renal impairment having BNP levels above 500 pg/mL
Test: Separate analysis of the Example 1 trial for subjects with BNP levels exceeding 500 pg/mL (BNP subgroup)
Format: in vivo, human
Details: 30 mg KW-3902, FIG. 14
Procedure: More than 300 subjects hospitalized due to acute CHF requiring intravenous diuretic therapy to treat fluid overload, and presenting with creatinine clearance values between 20 to 80 mL/min were identified. The subjects were randomized to receive either placebo, or 10 mg, 20 mg or 30 mg intravenous KW-3902 per day. The subjects' BNP levels, NT-Pro-BNP, serum creatinine, weight, and NYHA Class were measured.
On day 1, KW-3902 (or placebo) was co-administered with intravenous furosemide (LASIX™). The specified dose of KW-3902 (or placebo) was infused over a four hour time period. Subjects received therapy for up to three days. Serum creatinine, weight, dyspnea, and worsening heart failure were assessed daily by the investigator on days 1 through 14. Worsening heart failure was investigator determined and required an increase in dose or reinstitution of LASIX, mechanical respiratory or circulatory assist measures, administration of intravenous positive […], or administration of intravenous vasodilators.
To compare the therapeutic effect of KW-3902 on individuals with different levels of BNP and or NT-Pro-BNP, the results of the trial discussed in Example 1 were separately analyzed to distinguish subjects with BNP levels exceeding 500 pg/mL. Approximately 75% of the subjects described in Example 1 fell within the subgroup having BNP levels above 500 pg/mL. […]

CCCn1c(=O)c2[nH]c(C34CC5CC(CC3C5)C4)nc2n(CCC)c1=O [KW-3902, 8-(3-noradamantyl)-1,3-dipropylxanthine]
individuals characterized as modified "Success": greater than 65%
